Laboratory results as given in PMC7814697 (The Journal of organic chemistry, 2019).
Converted amounts (≈) assume the structure as drawn.

Columns and labels:
[1] = tested on: Gram-positive bacteria (S. aureus, S. epidermidis, and B. subtilis); experiment: MIC assays summarised across the Gram-positive bacteria; assay type: cell-based; conditions: MIC without versus with 0.002% polysorbate 80
[2] = tested on: Bacillus subtilis ATCC 6051; experiment: Minimum inhibitory concentration; assay type: cell-based; conditions: ATCC6051, read-out: MIC, Bacillus subtilis ATCC 6051

## CN[C@H](CC(C)C)C(=O)N[C@H]1C(=O)N[C@@H](CC(N)=O)C(=O)N[C@H]2C(=O)N[C@H]3C(=O)N[C@H](C(=O)N[C@H](C(=O)O)c4cc(O)cc(O)c4-c4cc3ccc4O)[C@H](O)c3ccc(c(Cl)c3)Oc3cc2cc(c3O[C@@H]2O[C@H](CO)[C@@H](O)[C@H](O)[C@H]2O[C@H]2C[C@](C)(N)[C@H](O)[C@H](C)O2)Oc2ccc(cc2Cl)[C@H]1O [vancomycin]
[1]
  decrease in the MIC with 0.002% polysorbate 80: modest two-fold decrease
[2]
  MIC: 0.5 µg/mL (≈ 0.345 µM)
